Measurements from patent US20070275911A1, “Targeted Drug-Formaldehyde Conjugates and Methods of Making and Using the Same” (priority 2003, published 2007).
Where “and” joins values, the source holds several entries; their conditions need not be identical. Equal values may be shown once.

How the values were obtained:
[1] = Tolerance, acute toxicity and efficacy in mice; details: preliminary mouse in vivo formulation experiments
MDA-MB-231 cells = assay: Uptake and release by flow cytometry; assay type: cell-based, human
Description: Additionally, uptake and release data were obtained for DOX, DOXSF, and DOX-TEG-TAM in estrogen receptor-negative MDA-MB-435 and MDA-MB-231 cells. In both cell lines DOX-TEG-TAM was also taken up to a much greater extent than DOX and DOXSF. In MDA-MB-435 cells DOX-TEG-TAM was taken up 3-fold and 5-fold more than DOXSF and DOX, respectively. In MDA-MB-23 1 cells DOX-TEG-TAM was taken up 2-fold and 6-fold more than DOXSF and DOX, respectively.
(§1) Uptake and release of DOX, DOXSF, and DOX-TEG-TAM: The uptake and release of DOX-TEG-TAM in breast cancer cells relative to DOX and untargeted DOXSF was performed as described with modifications. Breast cancer cells in log phase growth were dissociated with trypsin-EDTA, counted, resuspended in media at 1.5×10^5 cells/mL, and plated into six well plates (450,000 cells/well) and allowed to adhere overnight. The cells were treated with 0.5 μM DOX, DOXSF, or DOX-TEG-TAM for various amounts of time (20 min, 40 min, and 60 min). Drug treatment was accomplished by addition of 30 μL of 100× drug solution (50 μM) to 3 mL of media which was mixed and immediately added to the cells. For each time point, the media was removed, cells were trypsinized, and trypsinization was quenched with 3 mL phenol red-free RPMI 1640 media (no serum) at 4° C. Cells were pelleted by centrifugation at 300 g for 5 min at 10° C. The supernatant was decanted and the cells were re-suspended in 1 mL serum- and phenol red-free RPMI 1640 media and placed on ice.
For drug retention samples, the cells were treated for 1 h with 0.5 μM DOX, DOXSF, or DOX-TEG-TAM. Following drug treatment, the media was removed and replaced with 3 mL fresh, 37° C., full (containing serum and phenol red indicator) cell media and the cells were incubated for various times (0.5 h, 1 h, 3 h, and 6 h). Following the allotted release times, the cells were prepared as described above. Drug treatment was performed such that all cell samples would be prepared within 2 h.
(§2) The extent of drug uptake and retention was measured by flow cytometry. Cells were analyzed with excitation at 488 nm (15 mW Ar ion laser), with emission monitored between 570 and 600 nm. Instrument settings were optimized for each cell line and held constant for all experiments; 10,000 cells were analyzed for anthracycline fluorescence. The data are presented as the mean fluorescence for each condition with the background, drug-free cell fluorescence subtracted.

Rtx-6 cells = assay: Uptake and estradiol competition by flow cytometry; assay type: cell-based
Procedure: The uptake and release in Rtx-6 cells were also investigated. Rtx-6 cells were treated with DOX, DOXSF, or DOX-TEG-TAM as described above to determine both the uptake and the release of drug following a 1 h treatment. DOX-TEG-TAM was taken up to a greater extent than DOX (>3-fold) and DOXSF (>2-fold). The enhanced uptake relative to DOX and DOXSF could be attributed to the presence of ER and the lipophilicity of DOX-TEG-TAM. The uptake of DOX-TEG-TAM in Rtx-6 cells is perhaps best compared to the uptake in the parent MCF-7 cell line. DOX-TEG-TAM was taken up to a greater extent in MCF-7 cells (25 RFU) relative to Rtx-6 cells (14 RFU). One possible explanation for this difference is the presence of both AEBS and ER in MCF-7 cells versus only ER in Rtx-6 cells. […] No further inhibition occurs at higher concentrations, possibly because of non-specific binding of DOX-TEG-TAM at hydrophobic sites in Rtx-6 cells.
as §1, §2
The cell samples were prepared and analyzed by flow cytometry as described above.

[2] = Hydrolysis of anthracycline-formaldehyde N-Mannich bases followed by HPLC
Procedure: The area under the curve for the N-Mannich base was determined at each time point and was used to establish the kinetics of decomposition, using regression software. Hydrolysis of AOM-doxsaliform was carried out in pH 8.0 100 mM sodium phosphate buffer at 37° C. AOM-doxsaliform was dissolved in 48.0 μL DMSO and this solution was diluted into phosphate buffer to give 4.8 mL of an […] solution containing 1% DMSO. To this solution was added 6 μL of pig liver esterase (0.8 units/μL; Sigma; Milwaukee, Wis.) to achieve a final concentration of 1.0 units/mL. […] Brief centrifugation served to pellet the insoluble fraction. The drug solution was then transferred to a round bottom flask and concentrated by brief rotary-evaporation at 20° C. Reverse phase HPLC was used to analyze the extent of hydrolysis.
Hydrolysis of the N-Mannich bases, prepared from either doxorubicin or daunorubicin and the respective amides, at 37° C. in pH 7.4 triethylammonium acetate (TEAA) buffer (20 mM) containing 10-30% MeOH was monitored by reverse phase HPLC. […] Identification of a less robust construct that could be used to rapidly deliver the active Schiff base metabolite of doxorubicin to a growing tumor was undertaken.

[3] = cell line not stated; cited from earlier work

CC/C(=C(/c1ccc(O)cc1)c1ccc(OCCN(C)CCOCCOCCO/N=C/c2ccc(O)c(C(=O)NCN[C@H]3C[C@H](O[C@H]4C[C@](O)(C(=O)CO)Cc5c(O)c6c(c(O)c54)C(=O)c4c(OC)cccc4C6=O)O[C@@H](C)[C@H]3O)c2)cc1)c1ccccc1 [11c, E/Z-N-(2-Hydroxy-5-{[2-(2-{2-[(2-{4-[1-(4-hydroxy-phenyl)-2-phenyl-but-1-enyl]-phenoxy}-ethyl)-methyl-amino]-ethoxy}-ethoxy)-ethoxyimino]-methyl}-benzamide)-doxorubicin]
acute toxicity [1]: substantially less than that of doxoform
fold uptake more than DOX (MDA-MB-231 cells; MDA-MB-231): 6 fold
fold uptake more than DOXSF (MDA-MB-231 cells; MDA-MB-231): 2 fold
uptake relative to MDA-MB-435 cells (MDA-MB-231 cells; MDA-MB-231, 1 h, 500 nM): about 25%
fluorophore retention vs DOXSF or DOX (MDA-MB-231 cells; MDA-MB-231, after 1 h treatment with 500 nM): retained to a greater extent
fold uptake greater than DOX (Rtx-6 cells; Rtx-6): > 3 fold
fold uptake greater than DOXSF (Rtx-6 cells; Rtx-6): > 2 fold
inhibition of uptake by estradiol (Rtx-6 cells; Rtx-6, 0.5 μM drug, 20 nM estradiol): 70%
drug uptake (DOX fluorophore) (Rtx-6 cells; Rtx-6, 1 h treatment): 14 RFU

COc1cccc2c1C(=O)c1c(O)c3c(c(O)c1C2=O)C[C@@](O)(C(=O)CO)C[C@@H]3O[C@H]1C[C@H](NCNC(=O)c2ccccc2O)[C@H](O)[C@H](C)O1 [doxsaliform, N-(2-Hydroxybenzamido-methyl)-doxorubicin]
estimated pKa of the amino moiety [2]: 3.0-3.5
storage stability of lyopholyzed salts ([2]; −20° C.): stable at −20 °C for periods of several months
decomposition of the free base on storage ([2]; −20° C., after 3 weeks): ~20%
IC50 [3]: 60 nM and 50 nM
